Laboratory results reported in patent US9439904B2, “Pyrimidine compounds and their use as gamma secretase modulators” (Acturum Life Science AB, priority 2013, dated 2016).

Experiments:
Aβ42 [1] = assay: PCN assay: Aβ42 secreted by primary cortical neuronal cells, ELISA; assay type: cell-based; settings: primary cortical neuronal cells from 16-day mouse embryos; 16-20 hours incubation with test compound; read-out: pIC50 Aβ42 PCN assay (converted)
Protocol: Compounds were diluted in 100% DMSO and stored at […] prior to use. Primary cortical neuronal cells (PCN) were isolated from 16-day mouse embryos and cultured in Ham's F12 media containing 10% Foetal bovine serum, 10 mM Hepes, 2 mM L-glutamine and 100 U/mL Penicillin-Streptomycin. 150000-250000 cells/well, in 200 μL cell media were seeded onto 96-well poly-D-Lysine coated plates. After incubation at 37° C., 5% CO2 for five days, the media was exchanged for fresh medium containing test compound diluted ×100, before further incubation for 16-20 hours at 37° C. and 5% CO2. After incubation with test compound the amount of […] secreted to cell medium was analyzed using the solid phase sandwich Enzyme-Linked-Immuno-Sorbent Assay (ELISA)-kit from Invitrogen for detection of mouse βAmyloid 1-42. Potential cytotoxic effects of the compounds were assayed by measuring the ATP content (Via Light) from cell lysate.

Aβ42 [2] = assay: HEK assay: Aβ42 secreted to cell medium, Meso Scale Discovery electrochemiluminescence; assay type: cell-based; settings: Homo sapiens, HEK293; HEK cell line stably expressing APPswe; 4-6 hours incubation with test compound; read-out: pIC50 Aβ42 HEK assay (converted)
Protocol: Compounds were diluted in 100% DMSO and stored at […] prior to use. Human Embryonic Kidney (HEK) cell line stably expressing APP with the Swedish mutation (APPswe) was cultured using Dulbecco's Modified Eagles medium (DMEM) supplied with […] glucose, Na-pyruvate and GlutaMAX, 10% Foetal bovine serum, 100 U/mL penicillin-streptomycin (PEST), 1× non-essential amino acids (NEAA), […] Hepes, 100 μg/mL Zeocine. Cells at about 80% confluence were washed with PBS, detached from culture flasks using 1× Trypsin/EDTA diluted in PBS, re-suspended in cell media and plated in 384-well poly-d-lysine coated cell culture plates at about 10000-15000 cells/well, in 25 μL cell media. Optionally, cryo-preserved cells (frozen and stored at −140° C. in 90% cell media and 10% DMSO) were thawed, washed and plated as above. Next the cells were incubated for 15-24 h at 37° C. and 5% CO2, after which cell medium was changed. Fresh medium containing test compound diluted ×200 from prepared compound plate was added to the cells before further incubation for 4-6 hours at 37° C. and 5% CO2. After incubation with test compound the amount of Aβ peptides, including Aβ42, Aβ40, Aβ39, Aβ38 and Aβ37, secreted to cell medium was analyzed using the electrochemiluminescence assay technology from Meso Scale Discovery Technology, in combination with specific antibodies raised against the different Aβ peptides. Potential cytotoxic effects of the compounds were assayed by measuring the ATP content (ViaLight) from cell lysate.

## COc1cc(Nc2nc(COCC(F)(F)F)cc(C(C)(O)C(C)C)n2)ccc1-c1cnc(C)o1 (centres unmarked) [Example 48, 2-(2-(3-Methoxy-4-(2-methyloxazol-5-yl)phenylamino)-6-((2,2,2-trifluoroethoxy)methyl)-pyrimidin-4-yl)-3-methylbutan-2-ol]
Aβ42 [1]
  IC50: 50.1 nM
Aβ42 [2]
  IC50: 25.1 nM

## COc1cc(Nc2nc(COCC(F)(F)F)cc(C(O)C(F)(F)F)n2)ccc1-n1cnc(C)c1 (centres unmarked) [Example 12, 2,2,2-Trifluoro-1-(2-(3-methoxy-4-(4-methyl-1H-imidazol-1-yl)phenylamino)-6-((2,2,2-trifluoroethoxy)methyl)pyrimidin-4-yl)ethanol]
Aβ42 [1]
  IC50: 39.8 nM
Aβ42 [2]
  IC50: 79.4 nM

## CNc1cc(COCC(F)(F)F)nc(Nc2ccc(-c3cnnc(C)c3)c(OC)c2)n1 [Example 24, N^2-(3-Methoxy-4-(6-methylpyridazin-4-yl)phenyl)-N^4-methyl-6-((2,2,2-trifluoroethoxy)-methyl)pyrimidine-2,4-diamine]
Aβ42 [1]
  IC50: 79.4 nM
Aβ42 [2]
  IC50: 100 nM

## COc1cc(Nc2nc(COCC(F)(F)F)cc(C(C)N3CC(F)C3)n2)ccc1-n1cnc(C)c1 (centres unmarked) [Example 43, 4-(1-(3-Fluoroazetidin-1-yl)ethyl)-N-(3-methoxy-4-(4-methyl-1H-imidazol-1-yl)phenyl)-6-((2,2,2-trifluoroethoxy)methyl)pyrimidin-2-amine]
Aβ42 [1]
  IC50: 158 nM
Aβ42 [2]
  IC50: 31.6 nM

## COc1cn(-c2ccc(Nc3nc(COCC(F)(F)F)cc(C(C)(C)O)n3)cc2OC)cn1 [Example 32, 2-(2-(3-Methoxy-4-(4-methoxy-1H-imidazol-1-yl)phenylamino)-6-((2,2,2-trifluoroethoxy)-methyl)pyrimidin-4-yl)propan-2-ol]
Aβ42 [1]
  IC50: 316 nM
Aβ42 [2]
  IC50: 100 nM

## COc1cc(Nc2nc(COCC(F)(F)F)cc(N3CCC3)n2)ccc1-c1cnnc(C)c1 [Example 21, 4-(Azetidin-1-yl)-N-(3-methoxy-4-(6-methylpyridazin-4-yl)phenyl)-6-((2,2,2-trifluoroethoxy)methyl)pyrimidin-2-amine]
Aβ42 [1]
  IC50: 50.1 nM
Aβ42 [2]
  IC50: 126 nM

## COc1cc(Nc2nc(COCC(F)(F)F)cc(NC3CC3)n2)ccc1-n1cnc(C)c1 [Example 34, N^4-Cyclopropyl-N^2-(3-methoxy-4-(4-methyl-1H-imidazol-1-yl)phenyl)-6-((2,2,2-trifluoroethoxy)methyl)pyrimidine-2,4-diamine]
Aβ42 [1]
  IC50: 100 nM
Aβ42 [2]
  IC50: 50.1 nM

## COc1cc(Nc2nc(COCC(F)(F)F)c(C)c(C(C)O)n2)ccc1-n1cnc(C)c1 (centres unmarked) [Example 6, 1-(2-(3-Methoxy-4-(4-methyl-1H-imidazol-1-yl)phenylamino)-5-methyl-6-((2,2,2-trifluoroethoxy)methyl)pyrimidin-4-yl)ethanol]
Aβ42 [1]
  IC50: 31.6 nM
Aβ42 [2]
  IC50: 31.6 nM

## COc1cc(Nc2nc(COCC(F)(F)F)cc(N3CCC(F)(F)CC3)n2)ccc1-c1cnnc(C)c1 [Example 22, 4-(4,4-Difluoropiperidin-1-yl)-N-(3-methoxy-4-(6-methylpyridazin-4-yl)phenyl)-6-((2,2,2-trifluoroethoxy)methyl)pyrimidin-2-amine]
Aβ42 [1]
  IC50: 63.1 nM
Aβ42 [2]
  IC50: 79.4 nM

## COCc1cc(C(C)(C)O)nc(Nc2ccc(-n3cnc(C)c3)c(OC)c2)n1 [Example 27, 2-(2-(3-Methoxy-4-(4-methyl-1H-imidazol-1-yl)phenylamino)-6-(methoxymethyl)pyrimidin-4-yl)propan-2-ol]
Aβ42 [1]
  IC50: 126 nM
Aβ42 [2]
  IC50: 158 nM

## COc1cc(Nc2nc(CC#N)cc(COCC(F)(F)F)n2)ccc1-n1cnc(C)c1 [Example 3, 2-[2-[3-Methoxy-4-(4-methylimidazol-1-yl)anilino]-6-(2,2,2-trifluoroethoxymethyl)pyrimidin-4-yl]acetonitrile]
Aβ42 [1]
  IC50: 39.8 nM
Aβ42 [2]
  IC50: 25.1 nM

## COc1cc(Nc2nc(C(C)OCC(F)(F)F)cc(C(C)(C)O)n2)ccc1-n1cnc(C)c1 (centres unmarked) [Example 11, 2-(2-(3-Methoxy-4-(4-methyl-1H-imidazol-1-yl)phenylamino)-6-(1-(2,2,2-trifluoroethoxy)ethyl)pyrimidin-4-yl)propan-2-ol]
Aβ42 [1]
  IC50: 50.1 nM
Aβ42 [2]
  IC50: 25.1 nM

## COc1cc(Nc2nc(COCCC(F)(F)F)cc(C(C)(C)O)n2)ccc1-n1cnc(C)c1 [Example 18, 2-(2-(3-Methoxy-4-(4-methyl-1H-imidazol-1-yl)phenylamino)-6-((3,3,3-trifluoropropoxy)-methyl)pyrimidin-4-yl)propan-2-ol]
Aβ42 [1]
  IC50: 100 nM
Aβ42 [2]
  IC50: 63.1 nM

## COCCNc1cc(COCC(F)(F)F)nc(Nc2ccc(-n3cnc(C)c3)c(OC)c2)n1 [Example 37, N2-(3-Methoxy-4-(4-methyl-1H-imidazol-1-yl)phenyl)-N4-(2-methoxyethyl)-6-((2,2,2-trifluoroethoxy)methyl)pyrimidine-2,4-diamine]
Aβ42 [1]
  IC50: 63.1 nM
Aβ42 [2]
  IC50: 39.8 nM

## CCOC1(c2cc(C(C)(C)O)nc(Nc3ccc(-n4cnc(C)c4)c(OC)c3)n2)CC1(F)F (centres unmarked) [Example 52, 2-(6-(1-Ethoxy-2,2-difluorocyclopropyl)-2-(3-methoxy-4-(4-methyl-1H-imidazol-1-yl)phenylamino)pyrimidin-4-yl)propan-2-ol]
Aβ42 [1]
  IC50: 200 nM
Aβ42 [2]
  IC50: 200 nM

## COc1cc(Nc2nc(COCC(F)(F)F)cc(NCC(C)(C)O)n2)ccc1-n1cnc(C)c1 [Example 36, 1-(2-(3-Methoxy-4-(4-methyl-1H-imidazol-1-yl)phenylamino)-6-((2,2,2-trifluoroethoxy)-methyl)pyrimidin-4-ylamino)-2-methylpropan-2-ol]
Aβ42 [1]
  IC50: 39.8 nM
Aβ42 [2]
  IC50: 63.1 nM

## COc1cc(Nc2nc(COCC(F)(F)F)cc(NCCC#N)n2)ccc1-n1cnc(C)c1 [Example 38, 3-(2-(3-Methoxy-4-(4-methyl-1H-imidazol-1-yl)phenylamino)-6-((2,2,2-trifluoroethoxy)-methyl)pyrimidin-4-ylamino)propanenitrile]
Aβ42 [1]
  IC50: 39.8 nM
Aβ42 [2]
  IC50: 50.1 nM

## COc1cc(Nc2nc(COCC(F)(F)F)cc(OCC3CC3)n2)ccc1-n1cnc(C)c1 [Example 51, 4-(Cyclopropylmethoxy)-N-[3-methoxy-4-(4-methyl-1H-imidazol-1-yl)phenyl]-6-[(2,2,2-trifluoroethoxy)methyl]pyrimidin-2-amine]
Aβ42 [1]
  IC50: 126 nM
Aβ42 [2]
  IC50: 63.1 nM

## COc1cc(Nc2nc(COCC(F)(F)F)cc(C(O)c3ccccc3)n2)ccc1-n1cnc(C)c1 (centres unmarked) [Example 49, (2-(3-Methoxy-4-(4-methyl-1H-imidazol-1-yl)phenylamino)-6-((2,2,2-trifluoroethoxy)-methyl)pyrimidin-4-yl)(phenyl)methanol]
Aβ42 [1]
  IC50: 79.4 nM
Aβ42 [2]
  IC50: 79.4 nM

## COc1cc(Nc2nc(COCC(F)(F)F)cc(C(O)CC3CC3)n2)ccc1-n1cnc(C)c1 (centres unmarked) [Example 13, 2-Cyclopropyl-1-(2-(3-methoxy-4-(4-methyl-1H-imidazol-1-yl)phenylamino)-6-((2,2,2-trifluoroethoxy)methyl)pyrimidin-4-yl)ethanol]
Aβ42 [1]
  IC50: 50.1 nM
Aβ42 [2]
  IC50: 20 nM

## CNc1cc(COCC(F)(F)F)nc(Nc2ccc(-n3cnc(C)c3)c(OC)c2)n1 [Example 9, N^2-(3-Methoxy-4-(4-methyl-1H-imidazol-1-yl)phenyl)-N4-methyl-6-((2,2,2-trifluoroethoxy)methyl)pyrimidine-2,4-diamine]
Aβ42 [1]
  IC50: 31.6 nM
Aβ42 [2]
  IC50: 25.1 nM

## COc1cc(Nc2nc(COCC(F)(F)F)cc(C(C)(C)O)n2)ccc1-c1cnnc(C)c1 [Example 47, 2-(2-(3-Methoxy-4-(6-methylpyridazin-4-yl)phenylamino)-6-((2,2,2-trifluoroethoxy)-methyl)pyrimidin-4-yl)propan-2-ol]
Aβ42 [1]
  IC50: 100 nM
Aβ42 [2]
  IC50: 50.1 nM

## CNc1cc(COCC2CC2)nc(Nc2ccc(-n3cnc(C)c3)c(OC)c2)n1 [Example 30, 6-((Cyclopropylmethoxy)methyl)-N2-(3-methoxy-4-(4-methyl-1H-imidazol-1-yl)phenyl)-N4-methylpyrimidine-2,4-diamine]
Aβ42 [1]
  IC50: 63.1 nM
Aβ42 [2]
  IC50: 39.8 nM

## CCC(C)(O)c1cc(COCC(F)(F)F)nc(Nc2ccc(-n3cnc(C)c3)c(OC)c2)n1 (centres unmarked) [Example 45, 2-(2-(3-Methoxy-4-(4-methyl-1H-imidazol-1-yl)phenylamino)-6-((2,2,2-trifluoroethoxy)-methyl)pyrimidin-4-yl)butan-2-ol]
Aβ42 [1]
  IC50: 63.1 nM
Aβ42 [2]
  IC50: 50.1 nM

## COc1cc(Nc2nc(COCC(F)(F)F)cc(C(O)C3CC3)n2)ccc1-n1cnc(C)c1 (centres unmarked) [Example 28, Cyclopropyl(2-(3-methoxy-4-(4-methyl-1H-imidazol-1-yl)phenylamino)-6-((2,2,2-trifluoroethoxy)methyl)pyrimidin-4-yl)methanol]
Aβ42 [1]
  IC50: 100 nM
Aβ42 [2]
  IC50: 39.8 nM
